How the values were obtained:
Type in all cases: in vivo, human
[1] = system: partial-onset (focal) seizures; test: Phase 2 study in adults with uncontrolled partial-onset (focal) seizures
Procedure: A Phase 2 study was conducted. It enrolled 147 participants 18-69 years of age with a diagnosis of epilepsy with uncontrolled partial-onset (focal) seizures with or without secondary generalization despite being treated with up to 3 AEDs. Participants were randomized to adjunctive placebo (N=49) or GNX liquid suspension (N=98) titrated to a target dose of at 500 mg TID (1500 mg/day) in addition to their baseline AEDs, after which they entered an eight-week prospective baseline period followed by a 10-week double-blind phase. The primary endpoint was the reduction in weekly frequency of focal motor, focal impaired awareness and focal to bilateral tonic-clonic seizures from baseline to the double-blind phase. The prespecified primary analysis was the reduction in mean weekly seizure frequency, with log-transformed rates analyzed using analysis of covariance (ANCOVA). The protocol defined the population for analysis (“Primary Population”) as participants with 10 or fewer seizures/week during the baseline period.

[2] = system: seizure occurrence in presurgical epilepsy participants; test: Double-blind placebo-controlled study during AED discontinuation with inpatient continuous EEG monitoring; conditions: 500 mg TID or 625 mg TID, up to 8 days; log-rank p=0.08
Procedure: A double-blind, placebo-controlled study that enrolled 52 participants 18-65 years of age undergoing AED discontinuation during inpatient continuous EEG monitoring as part of an evaluation for surgical treatment of epilepsy was performed. Participants were randomized and administered: (i) ganaxolone 500 mg TID, (ii) 625 mg TID, or (iii) matching placebo and treated for up to 8 days. The primary endpoint was difference in the duration of treatment before meeting withdrawal criteria based on seizure occurrence.

[3] = system: major motor seizures in patients with CDKL5 deficiency disorder (CDD); test: Percent change in major motor seizure frequency vs plasma ganaxolone level, phase 3 CDD trial; conditions: back-transformation of log values; CDD participants
Text: (§1) Global, randomized, double-blind, placebo-controlled phase 3 clinical trial to assess the safety and efficacy of adjunctive ganaxolone for the treatment of seizures associated with CDD. Patients aged 2 to 21 years with a pathogenic or likely pathogenic mutation of the CDKL5 gene, neurodevelopmental impairment, and seizures refractory to treatment with at least 2 prior antiseizure medications who experienced at least 16 seizures per 28 days during the 2 months prior to screening were eligible to enroll. Study consisted of a 6-week baseline followed by a 17-week double-blind phase (ganaxolone or placebo, 1:1). The dose of ganaxolone 50 mg/mL suspension was titrated over 4 weeks to 63 mg/kg/day (21 mg/kg TID), not to exceed 1800 mg/d (600 mg TID), or to the maximum tolerated dose. Blood draws for PK analysis were scheduled to occur at visit 3 (week 5), visit 4 (week 9), and visit 5 (week 17).
Mean ganaxolone concentration was calculated for each subject using available results from up to three laboratory determinations during the double-blind phase. Linear regression was conducted using arithmetic- and natural logarithm-transformed percent reduction in major motor seizures (loge [percent reduction+100]) as dependent variable and natural logarithm-transformed mean ganaxolone concentration as the single explanatory variable. […]

[4] = system: partial-onset (focal) seizures; test: Phase 3 trial in adults with focal seizures
Procedure: Based on the results of the phase 2 study, a double-blind, placebo-controlled phase 3 trial in adults with focal seizures was conducted. The study enrolled two cohorts: Cohort 1 was an initial assessment of safety and tolerability of GNX 1200 or 1800 mg/day compared to placebo. Cohort 2, on which the primary efficacy analysis was based, enrolled 359 participants with a diagnosis of epilepsy with uncontrolled partial-onset (focal) seizures with or without secondary generalization who had failed at least two prior AEDs and had been on a stable regimen of one to three AEDs for at least one month. Following an eight-week prospective baseline period during which there were at least three seizures/28 days, participants were randomized to GNX 1800 mg/d (N=179) or placebo (N=180). The primary endpoint was the percent change in 28-day frequency of focal motor, focal impaired awareness and focal to bilateral tonic-clonic seizures from baseline to the double-blind phase. The primary efficacy analysis was a rank ANCOVA based on the modified intent-to-treat (mITT) population, defined as randomized participants who had taken at least one dose of study drug and provided post-baseline seizure data.

[5] = Plasma ganaxolone concentration in phase 3 CDD trial (PK/PD analysis)
Text: as §1
Mean ganaxolone concentration was calculated for each subject using available results from up to three laboratory determinations during the double-blind phase. Linear regression was conducted using arithmetic- and natural logarithm-transformed percent reduction in major motor seizures (loge [percent reduction+100]) as dependent variable and natural logarithm-transformed mean ganaxolone concentration as the single explanatory variable. Regression diagnostics included examination of residual and normal probability plots and determination of outliers and influential values. Cases with standardized residuals >2 or <−2 were excluded from the model and the regression was repeated.
The resulting sample was utilized in determination of a Pearson correlation coefficient (using log-transformed values). Additionally, percent seizure reduction was compared in three tertiles representing low (N=13), medium (N=13) and high (N=12) mean per subject ganaxolone concentrations using a Kruskal-Wallis test.

CC(=O)[C@H]1CC[C@H]2[C@@H]3CC[C@H]4C[C@](C)(O)CC[C@]4(C)[C@H]3CC[C@]12C [ganaxolone]
median percent reduction in seizure frequency ([1]; ITT population, 1500 mg/day TID, p=0.014 vs placebo): 25.9%
net reduction in weekly seizure frequency compared to placebo ([1]; ITT population, p=0.049): 11.4%
Median % reduction GNX ([1]; Phase 2, 1500 mg/d, TID, N 98): 25.9%
net reduction in weekly seizure frequency compared to placebo ([1]; Primary Population (10 or fewer seizures/week at baseline), p=0.042): 11.8%
weekly seizure frequency during the double-blind phase ([1]; Primary Population, 500 mg TID liquid suspension, adjunctive, baseline 3.13): 2.70
duration of treatment before meeting withdrawal criteria based on seizure occurrence, relative to placebo [2]: longer duration of treatment prior to study withdrawal
seizure reduction predicted at plasma concentration of approximately 100 ng/mL [3]: approximately 40%
Median % reduction GNX ([4]; Phase 3, 1800 mg/d, BID, N 179): 21.3%
percent reduction in seizure frequency from baseline period to double-blind phase ([4]; mITT, Cohort 2, 1800 mg/d, 28-day frequency, p=0.179 vs placebo): 21.3%
clinical endpoint outcome ([4]; oral 1800 mg daily (900 mg twice a day), adults with focal seizures): clinical endpoint was not achieved
Mean GNX level ([5]; High GNX level tertile (n = 12)): 172.6 ng/mL
Mean GNX level ([5]; Low GNX level tertile (n = 13)): 40.2 ng/mL
Mean GNX level ([5]; Medium GNX level tertile (n = 13)): 72.3 ng/mL

— US20230321117A1, “USE OF […] TREATING AN EPILEPSY DISORDER” (MARINUS PHARMACEUTICALS, INC., priority 2020, published 2023)
